Measured values reported in patent publication US12643896B2, “Dicyclopropylmethyl derivatives as IL-17 modulators” (UCB Biopharma SRL, priority 2020, dated 2026).

Molecular target: T1, IL-17A (Homo sapiens, UniProt Q16552)
T1 sequence (Q16552 24-155): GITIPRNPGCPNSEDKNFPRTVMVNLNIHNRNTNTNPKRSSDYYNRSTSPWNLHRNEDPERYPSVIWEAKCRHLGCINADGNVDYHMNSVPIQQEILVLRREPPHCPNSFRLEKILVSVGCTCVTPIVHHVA
Experiment: Inhibition of IL-17A induced IL-6 release from dermal fibroblast cell line (HDF cell line assay)
Type: cell-based
Conditions: human dermal fibroblasts (HDF) stimulated with IL-17A 50 pM + TNF-α 25 pM; IL-6 measured by HTRF; pIC50 = −log10[IC50], IC50 molar
Text: Inhibition of IL-17A Induced IL-6 Release from Dermal Fibroblast Cell Line
The purpose of this assay is to test the neutralising ability to IL-17 proteins, in a human primary cell system. Stimulation of normal human dermal fibroblasts (HDF) with IL-17 alone produces only a very weak signal but in combination with certain other cytokines, such as TNFα, a synergistic effect can be seen in the production of inflammatory cytokines, i.e. IL-6.
HDFs were stimulated with IL-17A (50 pM) in combination with TNF-α (25 pM). The resultant IL-6 response was then measured using a homogenous time-resolved FRET kit from Cisbio. The kit utilises two monoclonal antibodies, one labelled with Eu-Cryptate (Donor) and the second with d2 or XL665 (Acceptor). The intensity of the signal is proportional to the concentration of IL-6 present in the sample (Ratio is calculated by 665/620×104).
The ability of a compound to inhibit IL-17 induced IL-6 release from human dermal fibroblasts is measured in this assay.
HDF cells (Sigma #106-05n) were cultured in complete media (DMEM+10% FCS+2 mM L-glutamine) and maintained in a tissue culture flask using standard techniques. Cells were harvested from the tissue culture flask on the morning of the assay using TrypLE (Invitrogen #12605036). The TrypLE was neutralised using complete medium (45 mL) and the cells were centrifuged at 300×g for 3 minutes. The cells were re-suspended in complete media (5 mL) counted and adjusted to a concentration of 3.125×10^4 cells/mL before being added to the 384 well assay plate (Corning #3701) at 40 μL per well. The cells were left for a minimum of three hours, at 37° C./5% CO2, to adhere to the plate.
Compounds were serially diluted in DMSO before receiving an aqueous dilution into a 384 well dilution plate (Greiner #781281), where 5 μL from the titration plate was transferred to 45 μL of complete media and mixed to give a solution containing 10% DMSO.
Mixtures of TNFα and IL-17 cytokine were prepared in complete media to final concentrations of TNFα 25 pM/IL-17A 50 pM, then 30 μL of the solution was added to a 384 well reagent plate (Greiner #781281).
10 μL from the aqueous dilution plate was transferred to the reagent plate containing 30 μL of the diluted cytokines, to give a 2.5% DMSO solution. The compounds were incubated with the cytokine mixtures for 5 h at 37° C. After the incubation, 10 μL was transferred to the assay plate, to give a 0.5% DMSO solution, then incubated for 18-20 h at 37° C./5% CO2.
From the Cisbio IL-6 FRET kit (Cisbio #62IL6PEB) europium cryptate and Alexa 665 were diluted in reconstitution buffer and mixed 1:1, as per kit insert. To a white low volume 384 well plate (Greiner #784075) were added FRET reagents (10 μL), then supernatant (10 μL) was transferred from the assay plate to Greiner reagent plate. The mixture was incubated at room temperature for 3 h with gentle shaking (<400 rpm) before being read on a Synergy Neo 2 plate reader (Excitation: 330 nm; Emission: […]).

| SMILES | IC50 [nM] |
| --- | --- |
| Cc1nonc1C(=O)N[C@@H](c1nc2nc([C@@H]3CC(F)(F)CCN3C(=O)C34CC(F)(C3)C4)ccc2[nH]1)C(C1CC1)C1CC1 (single isomer, unassigned) [Example 4] | 3160 |
| Cc1nonc1C(=O)NC(c1nc2nc(C3CC(F)(F)CCN3C(=O)C34CC(F)(C3)C4)ccc2[nH]1)C(C1CC1)C1CC1 (centres unmarked) [Example 2, N-(2,2-Dicyclopropyl-1-{5-[4,4-difluoro-1-(3-fluorobicyclo[1.1.1]pentane-1-carbonyl)-piperidin-2-yl]-1H-imidazo[4,5-b]pyridin-2-yl}ethyl)-4-methyl-1,2,5-oxadiazole-3-carboxamide] | 63.1 |
| Cc1nonc1C(=O)N[C@H](c1nc2nc([C@H]3CC(F)(F)CCN3C(=O)C34CC(F)(C3)C4)ccc2[nH]1)C(C1CC1)C1CC1 (single isomer, unassigned) [Example 5] | 398 |
| Cc1nonc1C(=O)N[C@H](c1nc2nc([C@@H]3CC(F)(F)CCN3C(=O)C34CC(F)(C3)C4)ccc2[nH]1)C(C1CC1)C1CC1 (single isomer, unassigned) [Example 6] | 12.6 |
| Cc1nonc1C(=O)N[C@H](c1nc2nc([C@@H]3C[C@@](O)(C(F)(F)F)CCN3C(=O)C34CC(F)(C3)C4)ccc2[nH]1)C(C1CC1)C1CC1 (single isomer, unassigned) [Example 8] | 7.94 |
| O=C(N1CCC(F)(F)CC1c1ccc2[nH]c(C(NC(=O)C3(C(F)(F)F)CC3)C(C3CC3)C3CC3)nc2n1)C12CC(F)(C1)C2 (centres unmarked) [Example 1, N-(2,2-Dicyclopropyl-1-{5-[4,4-difluoro-1-(3-fluorobicyclo[1.1.1]pentane-1-carbonyl)-piperidin-2-yl]-1H-imidazo[4,5-b]pyridin-2-yl}ethyl)-1-(trifluoromethyl)cyclopropane-carboxamide] | 63.1 |
| Cc1nonc1C(=O)N[C@@H](c1nc2nc([C@H]3CC(F)(F)CCN3C(=O)C34CC(F)(C3)C4)ccc2[nH]1)C(C1CC1)C1CC1 (single isomer, unassigned) [Example 3] | 15800 |
| O=C(N[C@H](c1nc2nc([C@H]3C[C@](O)(C(F)F)CCN3C(=O)C34CC(F)(C3)C4)ccc2[nH]1)C(C1CC1)C1CC1)C1(F)CC1 (single isomer, unassigned) [Example 12] | 794 |
| O=C(N[C@H](c1nc2nc([C@@H]3C[C@@](O)(C(F)F)CCN3C(=O)C34CC(F)(C3)C4)ccc2[nH]1)C(C1CC1)C1CC1)C1(F)CC1 (single isomer, unassigned) [Example 11] | 5.01 |
| Cc1nonc1C(=O)N[C@@H](c1nc2nc([C@H]3C[C@](O)(C(F)(F)F)CCN3C(=O)C34CC(F)(C3)C4)ccc2[nH]1)C(C1CC1)C1CC1 (single isomer, unassigned) [Example 9] | > 10000 |
| Cc1nonc1C(=O)N[C@H](c1nc2nc([C@H]3C[C@](O)(C(F)(F)F)CCN3C(=O)C34CC(F)(C3)C4)ccc2[nH]1)C(C1CC1)C1CC1 (single isomer, unassigned) [Example 7] | 2510 |
